Experiments:
[1] = removal of 2'-protecting groups by acidic hydrolysis at 25° C. (HPLC); type: physicochemical; settings: for t0.99 (calculated time for 99% removal of the 2'-protecting group) / t1/2 (half-time): 25° C.; for t1/2 (half-time): hydrochloric acid or 0.2M glycine hydrochloride buffer; for rate of hydrolysis, times faster at pH 1.0 than at pH 3.0: pH 1.0 vs pH 3.0
Experimental: The removal of 2'-protecting groups by acidic hydrolysis at 25° C. was then investigated. Substrates as indicated below (ca 0.5-1.0 mg) were dissolved in 3.0 ml of hydrochloric acid or 0.2M glycine hydrochloride buffer at the specified pH. Aliquots (0.2 ml) of the reaction solutions were removed after suitable intervals of time, neutralized with triethylammonium bicarbonate and analyzed by HPLC (Jones "APEX ODS" column).
(b) t0.99 =calculated time for 99% removal of the 2'-protecting group.

[2] = concomitant removal of 2'-O-Ctmp group during removal of 5'-O-(9-phenylxanthen-9-yl) group (trifluoroacetic acid/pyrrole in dichloromethane); type: physicochemical; settings: in the time required for complete removal of the 5'-O-(9-phenylxanthen-9-yl) group, 5.5 mol. equiv. trifluoroacetic acid, 16.5 mol. equiv. pyrrole, room temperature
Experimental: Following the above scheme, the latter compound was then converted by the conventional two-step procedure into the fully-protected dinucleoside phosphate in ca 83% overall yield. When a 0.025M solution of the fully-protected dinucleoside phosphate in dichloromethane was treated with 5.5 mol. equiv. of trifluoroacetic acid and 16.5 mol. equiv. of pyrrole for 30 seconds at room temperature, no starting material remained and the partially-protected dinucleoside phosphate was isolated from the products In 95.5% yield. When the acid treatment of the fully-protected dinucleoside phosphate was extended to 30 minutes under the same conditions, the partially-protected dinucleoside phosphate was isolated in 85% yield. From such results, it may be estimated that less than 0.2% concomitant removal of the 2'-O-Ctmp group occurs in the time required for the complete removal of the 5'-O-(9-phenylxanthen-9-yl) protecting group.

| SMILES | rate of hydrolysis, dependence on pH ([1]; between pH 0.5 and 1.5) | t0.99 (calculated time for 99% removal of the 2'-protecting group) ([1]; pH 0.5) [min] | t1/2 (half-time) ([1]; pH 0.5) [min] | t0.99 (calculated time for 99% removal of the 2'-protecting group) ([1]; pH 1.0) [min] | t1/2 (half-time) ([1]; pH 1.0) [min] | rate of hydrolysis, times faster at pH 1.0 than at pH 3.0 [1] [times] | t0.99 (calculated time for 99% removal of the 2'-protecting group) ([1]; pH 1.5) [min] | t1/2 (half-time) ([1]; pH 1.5) [min] | t0.99 (calculated time for 99% removal of the 2'-protecting group) ([1]; pH 2.0) [min] | t1/2 (half-time) ([1]; pH 2.0) [min] | t0.99 (calculated time for 99% removal of the 2'-protecting group) ([1]; pH 2.5) [min] | t1/2 (half-time) ([1]; pH 2.5) [min] | t0.99 (calculated time for 99% removal of the 2'-protecting group) ([1]; pH 3.0) [min] | t1/2 (half-time) ([1]; pH 3.0) [min] | t0.99 (calculated time for 99% removal of the 2'-protecting group) ([1]; pH 3.5) [min] | t1/2 (half-time) ([1]; pH 3.5) [min] | effect of vicinal phosphotriester group on acid-catalyzed hydrolysis of Ctmp (in words) [1] | concomitant removal of the 2'-O-Ctmp group [2] | rate of hydrolysis, dependence on pH (in words) ([1]; with decreasing pH) | stability of protecting group for the desired purposes (in words) [1] |
| --- | --- | --- | --- | --- | --- | --- | --- | --- | --- | --- | --- | --- | --- | --- | --- | --- | --- | --- | --- | --- |
| COC1(O[C@@H]2[C@H](O)[C@@H](CO)O[C@H]2n2ccc(=O)[nH]c2=O)CCN(c2ccc(C)cc2Cl)CC1 | virtually unchanged | 223 | 33.5 | 236 | 35.5 | ~2.25 | 233 | 35 | 272 | 41 | 345 | 52 | 532 | 80 | 1120 | 168 |  |  |  |  |
| COC1(O[C@@H]2[C@H](OP(=O)(O)OC[C@H]3O[C@@H](n4ccc(=O)[nH]c4=O)[C@H](O)[C@@H]3O)[C@@H](CO)O[C@H]2n2ccc(=O)[nH]c2=O)CCN(c2ccc(C)cc2Cl)CC1 |  |  |  |  |  |  |  |  | 143 | 21.5 | 156 | 23.5 |  |  |  |  | facilitates the acid-catalyzed hydrolysis |  |  |  |
| COC1(O[C@@H]2[C@H](OP(=O)(OC[C@H]3O[C@@H](n4ccc(=O)[nH]c4=O)[C@H](OC(C)=O)[C@@H]3OC(C)=O)Oc3ccccc3Cl)[C@@H](COC3(c4ccccc4)c4ccccc4Oc4ccccc43)O[C@H]2n2ccc(=O)[nH]c2=O)CCN(c2ccc(C)cc2Cl)CC1 (some centres unmarked) [fully-protected dinucleoside phosphate] |  |  |  |  |  |  |  |  |  |  |  |  |  |  |  |  |  | less than 0.2% |  |  |
| COC1(O[C@@H]2[C@H](O)[C@@H](CO)O[C@H]2n2ccc(=O)[nH]c2=O)CCOCC1 [reference compound] |  |  |  | 6 | 0.9 | 140 |  |  | 136 | 20.5 |  |  | 837 | 126 |  |  |  |  | increases sharply with decreasing pH |  |
| COC1(O[C@@H]2[C@H](O)[C@@H](CO)O[C@H]2n2ccc(=O)[nH]c2=O)CCN(c2ccccc2)CC1 [reference compound] |  |  |  | 3300 | 498 |  |  |  | 4380 | 660 |  |  |  |  |  |  |  |  |  | too stable |
